This note sets out measurements from paper PMC3763859 (ACS medicinal chemistry letters, 2013).

Molecules are shown by their SMILES.

The subject of the experiment is SK-BR-3 cells. Put plainly: synergy studies with c-Src inhibitor 1 in SK-BR-3. Format: cell-based. As to conditions: 2 μM 1, 10 nM panobinostat.

For `Cc1[nH]c2ccccc2c1CCNCc1ccc(/C=C/C(=O)NO)cc1` [panobinostat], the “synergy with c-Src inhibitor 1” value is on record as “highly synergistic”.
